The subject of data set [1] is Ins2Akita mice (DKD). Description: Ramipril treatment of diabetic Ins2Akita mice (first series). The class given is in vivo, mouse. How it is done:
(§1) Male C57BL/6-Ins2Akita/J (Ins2Akita) and C57BL/6J (WT) mice (Charles River) were housed with unrestricted access to water and were maintained on a 12-h light-dark cycle in a pathogen-free environment on standard mouse chow. All experiments were conducted in accordance with the Guide for the care and use of laboratory animals of the National Institute of Health, eighth edition and the French Institute of Health guidelines for the care and use of laboratory animals. The project was approved by the local (Inserm/UPS US006 CREFRE) and national ethics committees (ethics committee for animal experiment, CEEA122; Toulouse, France; approval 02867.01).
(§2) In a first series of experiments, 2 months old mice were treated with or without ACEi ramipril (10 mg/kg/d in drinking water) for 2 months. In a second series of experiments 2 months old mice were treated with or without ACEi ramipril as in the first series or with dimethylaminoparthenolide monofumarate (DMAPT, 10 mg/kg/d by gavage) for 2 months. In each series of experiments, urine was collected in metabolic cages for 12 h, few days before sacrifice.
(§3) Urinary albumin concentration was measured by ELISA using the AlbuWell kit (WAK-Chemie Medical GmbH, Steinbach, Germany). Urinary creatinine concentration was measured by the colorimetric method of Jaffe according to the protocol Creatinine Assay Kit (Bio Assay Systems). Blood glucose levels were measured in caudal blood from fasted awake mice using a glucometer (Glucometer Elite XL; Bayer Healthcare, Elkhart, Ind.).
(§4) Comparison between 2 groups of values was implemented using a two-tailed unpaired Welch's t-tests. Comparison between more than 2 groups, was implemented using an ordinary one-way ANOVA followed by Homl-Sidak's multiple comparisons test was used. P<0.05 was considered statistically significant. For the proteomic data the P values were adjusted for the false discovery rate (Benjamini-Hochberg).

For data set [2], the system named is Ins2Akita mice (DKD). In words: DMAPT versus ramipril treatment of diabetic Ins2Akita mice (second series, FIG. 1). The class given is in vivo, mouse. To be noted: for urinary albumin/creatinine ratio (ACR): 10 mg/kg/d for 2 months from 2 months of age, vs untreated DKD, FIG. 1A; for glomerular injury (PAS staining) / glomerular area / fibrosis (Masson trichrome staining) / glycemia / body weight: 10 mg/kg/d for 2 months; for glomerular injury (PAS staining): FIG. 1B; for glomerular area: FIG. 1C; for fibrosis (Masson trichrome staining): FIG. 1D; for glycemia: FIG. 1E; for body weight: FIG. 1F. The procedure: as §1, §2
Right kidney cortexes were fixed in Carnoy's solution for 24 h, dehydrated in successive baths with increasing alcohol concentrations, embedded in paraffin and 2 μm sections were cut and mounted, and stained with either periodic acid-Schiff (PAS) or Masson trichrome. Stained sections were scanned using a Nanozoomer 2.0 RS (Hamamatsu Photonics SARL) and treated with the Morpho-expert image-analysis software (version 1.00, Explora Nova) for renal corpuscle surface quantification. At least 50 glomeruli including superficial and […] cortical area, were examined for each animal. The extent of glomerular injury was expressed as the percentage of glomerular area fraction occupied by PAS positive matrix^3.
as §3, §4

The conditions of data set [3]: cited from earlier work.
The next data set relates to patients with cancer. The note with it: Phase I, standardized doses; cited from earlier work.
In data set [4] the test system is type 2 diabetic db/db mice. To be noted: cited from earlier work.
The subject of data set [5] is immune glomerulonephritis in rat. To be noted: cited from earlier work.
Data set [6] relates to NF kappa B transcription factor complex. The note with it: cited from earlier work.
Data set [7] relates to histone deacetylase (HDAC). To be noted: independent of NF kappa B; cited from earlier work.
The conditions of data set [8]: fumarate salt; cited from earlier work.
Where [9] appears, read: ramipril 10 mg/kg/d in drinking water for 2 months.

SMILES strings stand for the structures.

As to `CCOC(=O)[C@H](CCc1ccccc1)N[C@@H](C)C(=O)N1[C@H](C(=O)O)C[C@@H]2CCC[C@@H]21` [ramipril], in the data set with Ins2Akita mice (DKD) [1] (setting [9]), the body weight entry is “no influence” and the glycemia result is on record as “slightly but significantly reduced”. In the data set with Ins2Akita mice (DKD) [1] (ramipril 10 mg/kg/d in drinking water from 2 months of age for 2 months), the ACR entry was “significantly reduced”. For the same compound, in the data set on Ins2Akita mice (DKD) [2], the “urinary albumin/creatinine ratio (ACR)” value is “significant reduction”, the “glomerular injury (PAS staining)” value was “no significant influence”, the glomerular area entry is reported as “no significant influence” and the “fibrosis (Masson trichrome staining)” value is on record as “no significant influence”. Also, in the data set on Ins2Akita mice (DKD) [2], the glycemia entry was “Neither glycemia (FIG. 1E) nor body weight (FIG. 1F) were significantly influenced” and the body weight result is reported as “Neither glycemia (FIG. 1E) nor body weight (FIG. 1F) were significantly influenced”.
For the compound `C=C1C(=O)O[C@@H]2[C@H]3O[C@]3(C)CC/C=C(\C)CC[C@@H]12` [parthenolide, (1aR,4E,7aS,10aS,10bR)-2,3,6,7,7a,8,10a,10b-octahydro-1a,5-dimethyl-8-methylene-oxireno[9,10]cyclodeca[1,2-b]furan-9(1aH)-one], in data set [3], the water-solubility entry was “poor water-solubility”. For the same compound, the “tolerability / dose-limiting toxicity” value in the data set on patients with cancer is “well tolerated without dose-limiting toxicity”. Also, the “renal inflammation and insulin resistance” value in data set [4] is “able to alleviate renal inflammation and insulin resistance”. The “proteinuria and renal injury” value in data set [5] is on record as “beneficial impact”. In addition, the “activity of the NF kappa B transcription factor complex” value in data set [6] was “inhibiting the activity”.
In the case of `C/C1=C/CC[C@@]2(C)O[C@@H]2[C@H]2OC(=O)[C@H](CN(C)C)[C@@H]2CC1` [DMAPT, (4E,8S)-8-[(dimethylamino)methyl]-2,3,6,7,7aS,8,10aS,10bR-octahydro-1aR,5-dimethyl-oxireno[9,10]cyclodeca[1,2-b]furan-9(1aH)-one], in data set [3], the water-solubility result is recorded as “water-soluble”. Also, in data set [7], the HDAC activity result is listed as “inhibit histone deacetylase (HDAC) activity”. For the same compound, in the data set on Ins2Akita mice (DKD) [2], the “urinary albumin/creatinine ratio (ACR)” value is given as “significant reduction”, the “glomerular injury (PAS staining)” value is “significantly reduced”, the glomerular area entry was “tended to reduce glomerular area without reaching significance” and the “fibrosis (Masson trichrome staining)” value is on record as “significantly reduced”. Moreover, in the data set with Ins2Akita mice (DKD) [2], the glycemia result was “Neither glycemia (FIG. 1E) nor body weight (FIG. 1F) were significantly influenced” and the body weight result was “Neither glycemia (FIG. 1E) nor body weight (FIG. 1F) were significantly influenced”. The oral bioavailability result in data set [8] is listed as “orally bioavailable”.

(Values after US20230210813A1, “METHODS AND PHARMACEUTICAL COMPOSITIONS FOR THE TREATMENT OF CHRONIC KIDNEY DISEASE” (INSERM (INSTITUTE NATIONAL DE LA SANTÉ ET DE LA RECHERCHE …, priority 2020, published 2023).)
